# Test results reported in publication PMC12855270, “Exceptionally selective voltage-sensor trapping of NaV1.5 channels by Mg-protoporphyrin impairs cancer cell migration” (Scientific Reports, 2026).
# Where two headings read alike, the source gives them in different places.
# How the values were obtained:
# [1] = target: T1, human NaV1.5 (hNaV1.5) (Homo sapiens, UniProt Q14524); details: for effect on hNaV1.5 current / remaining peak inward current: 1 µM extracellular, 5 min, -30 mV; for IC50: read-out: IC50 of hNaV1.5 current inhibition (Hill fit, constrained), current after 5 min, Hill coefficient constrained to 1 and remaining current to zero
# [2] = system: MDA-MB-231 cells; test: wound-healing assay, MDA-MB-231; type: cell-based, human; details: for gap closure (cell migration) in wound-healing assay: 100 nM, 4 h, 2% FBS, MDA-MB-231
# [3] = target: T2, human BKCa channel (KCa1.1, KCNMA1) (Homo sapiens, UniProt Q12791); test: BKCa currents in inside-out patches (HEK293T); type: biochemical; details: 1 µM to intracellular side, 1 µM free Ca2+, 80 mV
# T2 construct: expressed in transfected cells; host or cells: HEK293T
# Text: The coding sequence of human NaV1.5 (hNaV1.5, SCN5A, Acc. no. M77235) was inserted into pRC/CMV vector plasmids and expressed in HEK293T cells as described previously. The following NaV constructs were used in a similar manner: mNaV1.5 (mouse, AJ271477.1), hNaV1.2 (NM001040143), hNaV1.4 (AAO83647), hNaV1.7 (NP002968), and hNaV1.8 (Q9Y5Y9.2). The neonatal splice variant of hNaV1.5 (nhNaV1.5) was used as described by Schroeter et al.[45]. Recombinant DNAs for all NaV subgroups were engineered using PCR-based methods and verified by DNA sequencing. For the functional evaluation of BKCa channels (KCa1.1), we used human KCNMA1 (Acc. no. U11058).
# Cells were transfected with the channel-coding plasmids using ROTI®Fect (Carl Roth, Karlsruhe, Germany). Visualization of transfected cells was achieved by co-expressing green fluorescent protein or in the case of BKCa channels, CD8 + with subsequent use of anti-CD8 coated microbeads. Neuro-2A cells were utilized for the expression of hNaV1.8 channels; all other constructs were expressed in HEK293T cells. Ionic currents were recorded 1–2 days after transfection.
# Currents of BKCa channels were measured in inside-out patches after expression in HEK293T cells, using an EPC10 amplifier (HEKA Elektronik) and PACHMASTER NEXT acquisition software (Multi-Channel Systems GmbH, MCS, Reutlingen, Germany). The holding voltage was -90 mV, and currents were recorded for depolarization steps up to 80 mV. Pipettes with resistances of 1.8–2.5 MΩ were used. The extracellular (pipette) solution contained (in mM): 138 NaCl, 4 KCl, 2 CaCl2, 2 MgCl2, and 10 HEPES, pH 7.4 (NaOH); the intracellular (bath) solution with about 1 µM free Ca^2+ contained: 135 KCl, 8.63 CaCl2, 2 MgCl2, 10 EGTA, and 10 HEPES, pH 7.4 (KOH).
# All recordings were obtained at room temperature (20–23 °C). Metal protoporphyrins, diluted from stock solutions in DMSO, were applied by adding 1/3 of the final bath volume and mixing. Transmission and fluorescence light sources were turned off during data acquisition.
# [4] = system: SW-48 cells; test: wound-healing assay, SW-48; type: cell-based, human
# Description: (§1) Human embryonic kidney 293 T cells (HEK293T, from CAMR; Porton Down, Salisbury, UK) were cultured in Dulbecco’s Modified Eagle’s Medium (DMEM) with Nutrient Mixture F-12 (Gibco). Mouse neuroblastoma cells (Neuro-2A, German Collection of Microorganisms and Cell Cultures, DSMZ, Braunschweig, Germany) were cultured in DMEM. The breast cancer cell lines MDA-MB-231 (DSMZ) and T-47D (American Type Culture Collection, ATCC) were cultured in RPMI 1640 medium (Sigma, R7388), while the colorectal cancer cell lines SW-480 (DSMZ) and SW-48 (ATCC) were maintained in DMEM. Media were supplemented with 10% FBS, and the cells were incubated at 37 °C in a humidified atmosphere containing 5% or 10% (Neuro-2A) CO2.
# (§2) Cells (50,000 to 70,000 per well) were seeded in a 48-well plate (Greiner Bio-One, Frickenhausen, Germany) and cultured for one day in their respective culture media supplemented with 10% FBS. Upon achieving approximately 90% confluency, a 200 µl sterile pipette tip was used to create a linear scratch (wound) in each well. Subsequently, the cells were rinsed with phosphate-buffered saline (PBS) and the medium was replaced with the same formulation containing only 2% FBS to minimize cell proliferation and to emphasize cell migration. […] Images were analyzed with ImageJ (NIH, Bethesda, MD, USA) using the “wound_healing_size_tool_updated” plugin[46] to quantify wound areas.
# [5] = system: SW-480 cells; test: wound-healing assay, SW-480; type: cell-based, human
# Description: as §1, §2
# [6] = target: endogenous NaV-channel current in MDA-MB-231 cells (Homo sapiens, UniProt Q14524); test: whole-cell patch-clamp of endogenous NaV-channel current in MDA-MB-231 cells; type: cell-based
# [7] = target: T1, human NaV1.5 (hNaV1.5); details: cited from earlier work
# [8] = system: xenografted NaV1.5-expressing human breast cancer cells; details: mouse xenograft model; cited from earlier work
# [9] = target: T2, human BKCa channel (KCa1.1, KCNMA1); details: applied to the intracellular side; cited from earlier work
# T2 sequence (Q12791 1-1178 isoform Q12791-5): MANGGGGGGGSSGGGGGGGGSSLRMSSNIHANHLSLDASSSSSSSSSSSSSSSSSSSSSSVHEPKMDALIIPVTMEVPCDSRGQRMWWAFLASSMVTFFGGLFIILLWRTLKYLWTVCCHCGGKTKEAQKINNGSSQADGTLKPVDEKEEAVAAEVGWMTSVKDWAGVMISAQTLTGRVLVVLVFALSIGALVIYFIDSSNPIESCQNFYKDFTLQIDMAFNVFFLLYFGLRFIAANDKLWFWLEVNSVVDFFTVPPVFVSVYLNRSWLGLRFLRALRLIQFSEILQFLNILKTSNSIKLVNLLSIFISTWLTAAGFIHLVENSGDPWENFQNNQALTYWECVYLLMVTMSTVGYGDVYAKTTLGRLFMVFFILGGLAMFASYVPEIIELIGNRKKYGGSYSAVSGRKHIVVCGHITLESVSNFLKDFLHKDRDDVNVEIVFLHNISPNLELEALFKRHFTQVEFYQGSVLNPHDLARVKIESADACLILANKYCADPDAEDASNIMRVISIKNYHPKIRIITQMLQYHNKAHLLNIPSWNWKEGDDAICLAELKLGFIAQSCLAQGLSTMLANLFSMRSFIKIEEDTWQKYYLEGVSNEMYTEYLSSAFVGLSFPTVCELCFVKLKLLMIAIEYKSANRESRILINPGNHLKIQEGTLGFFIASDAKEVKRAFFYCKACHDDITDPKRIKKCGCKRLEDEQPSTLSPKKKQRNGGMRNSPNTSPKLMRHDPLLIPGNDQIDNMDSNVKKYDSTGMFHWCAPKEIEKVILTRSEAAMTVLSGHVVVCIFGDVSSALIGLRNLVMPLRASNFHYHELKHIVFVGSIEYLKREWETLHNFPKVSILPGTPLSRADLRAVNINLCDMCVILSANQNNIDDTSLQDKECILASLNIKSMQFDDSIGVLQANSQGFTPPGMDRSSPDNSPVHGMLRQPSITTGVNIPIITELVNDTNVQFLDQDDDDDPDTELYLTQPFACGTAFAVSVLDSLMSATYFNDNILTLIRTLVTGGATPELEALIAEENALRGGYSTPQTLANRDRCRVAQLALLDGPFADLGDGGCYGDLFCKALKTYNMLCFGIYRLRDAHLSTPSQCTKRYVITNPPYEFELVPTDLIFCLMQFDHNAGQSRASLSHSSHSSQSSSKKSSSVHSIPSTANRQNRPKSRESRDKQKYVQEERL
# T1 sequence (Q14524 whole entry): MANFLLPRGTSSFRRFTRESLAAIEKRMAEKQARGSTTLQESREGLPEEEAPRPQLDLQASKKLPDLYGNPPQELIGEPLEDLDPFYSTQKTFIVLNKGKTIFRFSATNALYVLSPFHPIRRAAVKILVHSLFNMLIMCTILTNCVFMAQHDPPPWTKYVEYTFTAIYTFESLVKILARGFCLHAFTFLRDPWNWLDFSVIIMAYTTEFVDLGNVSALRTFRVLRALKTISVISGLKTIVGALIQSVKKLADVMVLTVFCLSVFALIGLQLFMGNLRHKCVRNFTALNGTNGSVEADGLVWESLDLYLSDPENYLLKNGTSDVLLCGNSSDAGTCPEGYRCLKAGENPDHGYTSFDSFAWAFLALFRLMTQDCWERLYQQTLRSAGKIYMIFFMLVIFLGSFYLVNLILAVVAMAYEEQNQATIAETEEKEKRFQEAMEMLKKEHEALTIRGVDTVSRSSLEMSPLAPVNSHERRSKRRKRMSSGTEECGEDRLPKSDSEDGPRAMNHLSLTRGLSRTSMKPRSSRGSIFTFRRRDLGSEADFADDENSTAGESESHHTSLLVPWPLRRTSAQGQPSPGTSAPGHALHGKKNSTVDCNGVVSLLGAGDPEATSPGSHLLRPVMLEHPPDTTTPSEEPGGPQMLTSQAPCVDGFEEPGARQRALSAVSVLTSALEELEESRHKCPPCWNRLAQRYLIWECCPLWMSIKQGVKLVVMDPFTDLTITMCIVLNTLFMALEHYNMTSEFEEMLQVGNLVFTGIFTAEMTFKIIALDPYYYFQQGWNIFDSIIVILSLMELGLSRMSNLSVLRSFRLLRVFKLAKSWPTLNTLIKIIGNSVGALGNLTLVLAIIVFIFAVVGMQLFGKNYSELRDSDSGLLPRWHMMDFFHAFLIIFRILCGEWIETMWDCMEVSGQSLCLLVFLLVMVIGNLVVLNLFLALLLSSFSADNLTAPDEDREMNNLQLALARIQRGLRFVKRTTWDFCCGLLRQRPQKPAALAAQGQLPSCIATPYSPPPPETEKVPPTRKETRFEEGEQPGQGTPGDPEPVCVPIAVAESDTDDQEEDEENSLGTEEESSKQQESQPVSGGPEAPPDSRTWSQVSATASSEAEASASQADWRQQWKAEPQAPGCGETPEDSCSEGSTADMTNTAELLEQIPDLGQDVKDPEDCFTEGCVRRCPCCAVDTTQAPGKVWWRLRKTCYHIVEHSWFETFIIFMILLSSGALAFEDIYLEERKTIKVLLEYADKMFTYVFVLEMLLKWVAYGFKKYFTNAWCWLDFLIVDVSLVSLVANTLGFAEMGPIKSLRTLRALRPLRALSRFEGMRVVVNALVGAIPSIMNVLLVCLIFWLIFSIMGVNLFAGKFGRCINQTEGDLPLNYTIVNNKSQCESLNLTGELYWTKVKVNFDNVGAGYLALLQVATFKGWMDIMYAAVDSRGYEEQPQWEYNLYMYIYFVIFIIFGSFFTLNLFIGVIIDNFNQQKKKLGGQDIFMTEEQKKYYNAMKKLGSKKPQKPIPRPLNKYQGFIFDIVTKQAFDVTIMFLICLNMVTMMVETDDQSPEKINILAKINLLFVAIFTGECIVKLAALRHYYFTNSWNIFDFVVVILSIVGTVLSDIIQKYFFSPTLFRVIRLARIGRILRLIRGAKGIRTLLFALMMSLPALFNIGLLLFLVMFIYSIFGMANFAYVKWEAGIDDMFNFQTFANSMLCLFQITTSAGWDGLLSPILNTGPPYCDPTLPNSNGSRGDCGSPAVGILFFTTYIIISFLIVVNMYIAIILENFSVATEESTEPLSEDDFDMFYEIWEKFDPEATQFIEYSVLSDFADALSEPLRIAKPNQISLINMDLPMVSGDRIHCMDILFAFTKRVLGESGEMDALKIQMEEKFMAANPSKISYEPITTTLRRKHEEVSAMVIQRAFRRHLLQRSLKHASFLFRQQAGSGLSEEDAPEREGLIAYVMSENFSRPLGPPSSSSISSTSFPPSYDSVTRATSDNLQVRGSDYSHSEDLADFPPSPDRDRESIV
# Chain of endogenous NaV-channel current in MDA-MB-231 cells (Q14524 711-950): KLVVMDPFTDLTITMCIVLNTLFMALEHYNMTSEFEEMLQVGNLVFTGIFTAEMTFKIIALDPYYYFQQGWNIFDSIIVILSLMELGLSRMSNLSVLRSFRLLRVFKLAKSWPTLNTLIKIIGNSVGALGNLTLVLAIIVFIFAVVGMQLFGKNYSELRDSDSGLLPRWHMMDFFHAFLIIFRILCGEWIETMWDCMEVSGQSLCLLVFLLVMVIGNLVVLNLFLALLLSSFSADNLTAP
compound,measurement,setting,value
"C=Cc1c(C)c2cc3nc(c4c5[n-]c(cc6nc(cc1[n-]2)C(C)=C6CC)c(C)c5C(=O)[C@@H]4C(=O)OC)[C@@H](CCC(=O)OC/C=C(\C)CCC[C@H](C)CCC[C@H](C)CCCC(C)C)[C@@H]3C.[Mg+2] [Chlorophyll-A, reference compound]",effect on hNaV1.5 current,[1],no detectable effect
"C=CC1=C(C)c2cc3[n-]c(cc4[n-]c(cc5nc(cc1n2)C(C)=C5C=C)c(C)c4CCC(=O)O)c(CCC(=O)O)c3C.[Cu+2] [CuPpIX, copper-PpIX]",effect on hNaV1.5 current,[1],failed to affect the current
same,effect on hNaV1.5 current,[1]; listed as Cu(II)PpIX,completely ineffective
"C=CC1=C(C)C2=Cc3c(C=C)c(C)c4[n]3[Ga][n]3c(c(C)c(CCC(=O)O)c3=CC3=NC(=C4)C(C)=C3CCC(=O)O)=CC1=N2 [GaPpIX, gallium-PpIX]",remaining peak inward current,[1],about 10%
same,IC50,[1],117 ± 8 nM
same,gap closure (cell migration) in wound-healing assay,[2],"diminished gap closure, albeit less potently than MgPpIX"
same,effect on BKCa current,[3],did not block BKCa channels
"C=CC1=C(C)c2cc3[n-]c(cc4[n-]c(cc5nc(cc1n2)C(C)=C5C=C)c(C)c4CCC(=O)[O-])c(CCC(=O)[O-])c3C.[H+].[H+].[Mn+2] [MnPpIX, manganese-PpIX]",effect on hNaV1.5 current,[1],slightly less potent than hemin
same,IC50,[1],672 ± 18 nM
"C=CC1=C(C)c2cc3[n-]c(cc4[n-]c(cc5nc(cc1n2)C(C)=C5C=C)c(C)c4CCC(=O)[O-])c(CCC(=O)[O-])c3C.[H+].[H+].[Ni+2] [NiPpIX, nickel-PpIX]",effect on hNaV1.5 current,[1],failed to affect the current
same,effect on hNaV1.5 current,[1]; listed as Ni(II)PpIX,completely ineffective
same,gap closure (cell migration) in wound-healing assay,[2],failed to influence gap closure
same,effect on BKCa current,[3],did not block BKCa channels
"C=CC1=C(C)c2cc3[nH]c(cc4nc(cc5[nH]c(cc1n2)c(C)c5CCC(=O)O)C(CCC(=O)O)=C4C)c(C)c3C=C [PpIX, Protoporphyrin IX, reference compound]",gap closure (cell migration) in wound-healing assay,[2],failed to influence gap closure
same,cell migration in wound-healing assay,[4],neither SnPpIX nor PpIX had any impact
same,cell migration in wound-healing assay,[5],neither SnPpIX nor PpIX had any impact
"NC1=N[C@H](O)[C@H]2[C@H]3O[C@]4(O)O[C@@H]([C@@H](O)[C@@]2(N1)[C@@H]4O)[C@]3(O)CO [TTX, tetrodotoxin, reference compound]",remaining endogenous NaV-channel current,[6],3.5 ± 0.5%
same,gap closure in wound-healing assay,[2],only a weak effect
"C=CC1=C(C)c2cc3[n-]c(cc4nc(cc5[n-]c(cc1n2)c(C)c5C=C)C(C)=C4CCC(=O)O)c(CCC(=O)O)c3C.[Zn+2] [ZnPpIX, zinc-PpIX]",remaining peak inward current,[1],about 10%
same,IC50,[1],106 ± 11 nM
same,gap closure (cell migration) in wound-healing assay,[2],"diminished gap closure, albeit less potently than MgPpIX"
same,effect on BKCa current,[3],minor effect
"C=CC1=C(C)c2cc3[n-]c(cc4[n-]c(cc5nc(cc1n2)C(C)=C5C=C)c(C)c4CCC(=O)O)c(CCC(=O)O)c3C.[Fe+2] [heme, reference compound]",impact on hNaV1.5 channels,[7],no impact
COc1ccccc1OCC(O)CN1CCN(CC(=O)Nc2c(C)cccc2C)CC1 (stereo not drawn) [ranolazine],lung colonization by the cancer cells,[8],reduced lung colonization by the cancer cells
same,tolerability,[8],well-tolerated
Fe^3+-protoporphyrin IX [hemin],remaining peak inward current,[1],~ 20%
same,"reestablishment of inhibition, times slower than MgPpIX","[1]; hNaV1.5, after prepulse-induced reversal",about 8 times
same,IC50,[1],231 ± 18 nM
same,gap closure (cell migration) in wound-healing assay,[2],"diminished gap closure, albeit less potently than MgPpIX"
same,IC50,"[7]; read-out: apparent half-inhibitory constant (IC50) for hNaV1.5-mediated Na+ current, extracellularly applied",~100 nM
same,effect on BKCa channel,[9],effectively inhibited
tin-PpIX [SnPpIX],effect on hNaV1.5 current,[1],failed to affect the current
same,effect on hNaV1.5 current,[1]; listed as Sn(IV)PpIX,completely ineffective
same,gap closure (cell migration) in wound-healing assay,[2],failed to influence gap closure
same,cell migration in wound-healing assay,[4],neither SnPpIX nor PpIX had any impact
same,cell migration in wound-healing assay,[5],neither SnPpIX nor PpIX had any impact
